Experimental data as given in patent publication US20220265657A1, “ADMINISTRATION METHOD AND DOSAGE REGIMEN FOR TREATMENT OF NEURODEGENERATIVE DISEASES USING TRAMETINIB AND MARKERS” (GENUV INC., priority 2019, published 2022).

Assays:
[1] = tested on: patient with Alzheimer's disease; assay: Therapeutic effects of trametinib in humans; type: in vivo, human; settings: daily for at least four weeks, brain Cmax at least 0.25 ng/g
Method: Trametinib is administered to a patient with Alzheimer's disease in an amount that provides a mean peak trametinib concentration (Cmax) of at least 0.25 ng/g in the brain. The administration is performed daily for at least four weeks.

primary cortical neurons [2] = assay: Western blot of primary cortical neurons; type: cell-based, ICR mice
Method: Lysates were centrifuged at 13,000 rpm for 20 min at 4° C., and the protein content in the supernatant was determined using the Bradford assay (Bio-rad, Hercules, Calif.). For subcellular fractionation, cells were lysed with lysis buffer (250 mM Sucrose, 20 mM HEPES, pH 7.4, 10 mM KCl, 1.5 mM MgCl2, 1 mM EGTA, 1 mM EDTA, 1 mM DTT) containing protease inhibitor for 30 min on ice, followed by centrifugation at 720 g for 5 min at 4° C. Supernatants were centrifuged at 15,000 rpm for 10 min at 4° C., and the resulting supernatant was used as the cytosol fraction. After centrifugation at 720 g for 5 min, pellets were washed with lysis buffer and dissolved in nuclear lysis buffer (50 mM Tris HCl, pH 8.0, 150 mM NaCl, 1% NP40, 0.5% sodium deoxycholate, 0.1% SDS, 10% glycerol) as the nuclear fraction. Protein from each sample was subjected to 8%˜15% SDS-PAGE, and the resolved proteins were transferred to nitrocellulose or polyvinylidene fluoride membrane. The membranes were blocked with 5% nonfat milk powder in Tris-buffered saline/Tween 20 (TBST) for 1 h at room temperature, then incubated with anti-phospho-ERK (Cell signaling), anti-ERK (Cell signaling), anti-LAMP1 (Abcam), anti-LC3 (Cell signaling), anti-cathepsin B (Cell signaling), anti-p62 (Cell signaling), anti-p62 (5114, Cell signaling), anti-phospho-mTOR (5536, Cell signaling), anti-mTOR (2983, Cell signaling), anti-phospho-ULK1 (14202, Cell signaling), anti-ULK1 (8054, Cell signaling), anti-TFEB (852501, Biolegend), and anti-GAPDH (Cell signaling) overnight at 4° C.

5XFAD mice = assay: LTP recording (EPSCs) at hippocampal CA1 region; type: in vivo; settings: 8-month old 5XFAD mice, oral administration
primary cortical neurons [3] = assay: Immunofluorescence of LC3, LAMP1 and lysotracker in primary cortical neurons; type: cell-based, ICR mice; settings: even in the presence of Aβ1-42 oligomers
Method: Cell culture: SH-SY5Y neuroblastoma cells were cultured at 37° C., 5% CO2., in Dulbecco's Modified Eagle Medium/Ham's F-12 nutrient mixture (DMEM/F12) (Invitrogen, Carlsbad, Calif.) supplemented with 10% heat-inactivated fetal bovine serum containing 100 units/ml penicillin, 100 μg/ml streptomycin. Primary cortical neuron cultures were derived from embryo day 18 (E18) from ICR mice. The dissociated cells were plated on glass cover slips coated with poly-D-lysine in Neurobasal medium supplemented with 2% B27 (Invitrogen), 100 units/ml penicillin, 100 μg/ml streptomycin, and 2 mM L-glutamine. Primary NSCs from normal mice were isolated from the subventricular zone (SVZ) of 8 week-old C57BL/6 mice brain. NSCs from adult Tg2576 mice brain were obtained from Seoul National University Hospital. […]
Immunocytochemistry: SH-SY5Y cells or adult NSCs were placed on glass coverslips coated with poly-L-ornithine/laminin or poly-D-lysine, respectively. […] The percentage of coefficient was calculated using the pixels above threshold of fluorescence intensities. […] The fluorescence intensity was observed under a confocal microscopy using a LSM700 microscope (Carl Zeiss). The number of LysoTracker puncta was analyzed with Icy software.

CC(=O)Nc1cccc(-n2c(=O)n(C3CC3)c(=O)c3c(Nc4ccc(I)cc4F)n(C)c(=O)c(C)c32)c1 [trametinib]
behavioral and/or physiological symptoms associated with Alzheimer's disease [1]: reduces behavioral and/or physiological symptoms associated with Alzheimer's disease | decrease of p-mTOR/mTOR ratio compared to Aβ1-42 treated alone group (primary cortical neurons [2]; 100 nM, co-treated with Aβ1-42): 67% | decrease of pULK1(S757) to total ULK1 ratio compared to Aβ1-42 treated alone neurons (primary cortical neurons [2]; co-treated with Aβ1-42): 29% | increase of mature cathepsin B level compared to vehicle treated control (CTL) (primary cortical neurons [2]; primary cortical neurons): 54% | increase of mature cathepsin B level compared to Aβ1-42 treated alone group (primary cortical neurons [2]; primary cortical neurons treated with Aβ1-42 oligomers): 73% | long-term potentiation (LTP), EPSC slope (5XFAD mice): recovered in the trametinib-orally administered animals to a level almost comparable to that of the wild type control | co-staining of LC3-LAMP1 (primary cortical neurons [3]): increased co-staining of LC3-LAMP1 | lysotracker-positive acidic puncta (primary cortical neurons [3]): increased
